Experimental data as given in patent publication US8324132B2, “Mixture and method for controlling undesired vegetation” (E. I. du Pont de Nemours and Company, priority 2010, dated 2012).

Columns and labels:
Type in all cases: in vivo
[1] = tested on: bermudagrass (Cynodon dactylon, CYNDA); assay: Test C field plots: bermudagrass phytotoxic response
Excerpt: (§1) In the following Tests C through E, Colby's equation was used to calculate the expected additive herbicidal effect of nicosulfuron and glyphosate alone and in combination. Colby's equation (S. R. Colby, “Calculating Synergistic and Antagonistic Responses of Herbicide Combinations,” Weeds, 15(1), pp 20-22 (1967)) calculates the expected additive effect of herbicidal mixtures, and for two active ingredients is of the form: Pa+b=Pa+Pb−(PaPb/100) • wherein Pa±b is the percentage effect of the mixture expected from additive contribution of the individual components, • Pa is the observed percentage effect of the first active ingredient at the same use rate as in the mixture, and • Pb is the observed percentage effect of the second active ingredient at the same use rate as in the mixture.
(§2) For mixtures comprising nicosulfuron, metsulfuron-methyl and glyphosate the expected herbicidal effect was calculated based on the combination of nicosulfuron and metsulfuron-methyl providing observed herbicidal effect Pa and glyphosate providing observed herbicidal effect Pb in the Colby Equation. Plant responses to components Pa and Pb range from zero to 100% where zero is no observed response and 100% is complete response (i.e. plant death). Mixtures of herbicides were tested for their ability to express synergism (enhanced weed control) or antagonism (improved tolerance) at several locations in the United States. In the following Tests glyphosate was provided by the potassium salt of glyphosate. Crop phytotoxic response (% phyto) and weed control efficacy (% control) were visually evaluated using a 0-100 scale where zero is no visible response and 100 is plant death. In the following Tables “DAA” means days after application and “g a.i./ha” means grams active ingredient per hectare.
(§3) Herbicides and herbicide mixtures were applied to field plots of bermudagrass (Cynodon dactylon, CYNDA) near De Leon, Tex., Yukon, Okla. and Burlington, Okla. to control field sandbur (Cenchrus incertus M. A. Curtis, CCHIN) approximately one week after the bermudagrass had been cut and harvested. All herbicides and herbicide mixtures were formulated in water containing 0.25% (vol/vol) non-ionic surfactant (“NIS” provided by INDUCE®) and applied as a spray mixture to bermudagrass stubble using a backpack sprayer pressurized with CO2.

[2] = tested on: field sandbur (Cenchrus incertus M. A. Curtis, CCHIN); assay: Test C field plots: field sandbur control
Excerpt: as §1, §2, §3

[3] = tested on: bermudagrass (Cynodon dactylon, CYNDA); assay: Test D field plots: bermudagrass phytotoxic response
Excerpt: as §1, §2
(§4) Herbicides and herbicide mixtures were applied to field plots of bermudagrass (Cynodon dactylon, CYNDA) near Lena, Miss. and Paris, Ark. to control knotroot foxtail (Setaria geniculata [Lam.] Beauv., SETGE) approximately one week after the bermudagrass had been cut and harvested. All herbicides and herbicide mixtures were formulated in water containing 0.25% (vol/vol) non-ionic surfactant (“NIS” provided by INDUCE®) and applied to bermudagrass stubble as a spray mixture using a backpack sprayer pressurized with CO2.

[4] = tested on: knotroot foxtail (Setaria geniculata [Lam.] Beauv., SETGE); assay: Test D field plots: knotroot foxtail control
Excerpt: as §1, §2, §4

[5] = tested on: dormant bermudagrass (Cynodon dactylon, CYNDA); assay: Test E field plots: dormant bermudagrass phytotoxic response
Excerpt: as §1, §2
(§5) Herbicides and herbicide mixtures were applied to field plots of dormant bermudagrass (Cynodon dactylon, CYNDA) near Eatonton, Ga. on Mar. 20, 2010 and Decatur, Tex. on Mar. 30, 2010 to control rescuegrass (Bromus catharticus Vahl., BROCA). All herbicides and herbicide mixtures were formulated in water containing 1.0% (vol/vol) crop oil concentrate and applied as a spray mixture to bermudagrass using a backpack sprayer pressurized with CO2.

[6] = tested on: rescuegrass (Bromus catharticus Vahl., BROCA); assay: Test E field plots: rescuegrass control
Excerpt: as §1, §2, §5

[7] = nicosulfuron 39 g a.i./ha, 15 DAA, De Leon, TX
[8] = nicosulfuron 39 g a.i./ha, 30 DAA, Yukon, OK
[9] = nicosulfuron 39 g a.i./ha, 90 DAA, Yukon, OK and Burlington, OK
[10] = nicosulfuron 39 g a.i./ha, 30 DAA, Paris, AR
[11] = nicosulfuron 39 g a.i./ha, 60 DAA, Paris, AR
[12] = nicosulfuron 39 g a.i./ha, 30 DAA, Decatur, TX
[13] = nicosulfuron 39 g a.i./ha, 45 DAA, Eatonton, GA
[14] = nicosulfuron 39 g a.i./ha, 60 DAA, Decatur, TX
[15] = glyphosate 96 g a.i./ha, 15 DAA, De Leon, TX
[16] = glyphosate 96 g a.i./ha, 30 DAA, Yukon, OK
[17] = glyphosate 96 g a.i./ha, 90 DAA, Yukon, OK and Burlington, OK
[18] = glyphosate 192 g a.i./ha, 15 DAA, De Leon, TX
[19] = glyphosate 192 g a.i./ha, 30 DAA, Yukon, OK
[20] = glyphosate 192 g a.i./ha, 90 DAA, Yukon, OK and Burlington, OK
[21] = glyphosate 289 g a.i./ha, 15 DAA, De Leon, TX
[22] = glyphosate 289 g a.i./ha, 30 DAA, Yukon, OK
[23] = glyphosate 289 g a.i./ha, 90 DAA, Yukon, OK and Burlington, OK
[24] = glyphosate 96 g a.i./ha, 30 DAA, Paris, AR
[25] = glyphosate 96 g a.i./ha, 60 DAA, Paris, AR
[26] = glyphosate 192 g a.i./ha, 15 DAA, Lena, MS
[27] = glyphosate 192 g a.i./ha, 30 DAA, Paris, AR
[28] = glyphosate 192 g a.i./ha, 60 DAA, Paris, AR
[29] = glyphosate 289 g a.i./ha, 15 DAA, Lena, MS
[30] = glyphosate 289 g a.i./ha, 30 DAA, Paris, AR
[31] = glyphosate 289 g a.i./ha, 60 DAA, Paris, AR
[32] = glyphosate 144 g a.i./ha, 30 DAA, Decatur, TX
[33] = glyphosate 144 g a.i./ha, 45 DAA, Eatonton, GA
[34] = glyphosate 144 g a.i./ha, 60 DAA, Decatur, TX
[35] = glyphosate 289 g a.i./ha, 30 DAA, Decatur, TX
[36] = glyphosate 289 g a.i./ha, 45 DAA, Eatonton, GA
[37] = glyphosate 289 g a.i./ha, 60 DAA, Decatur, TX

Structure (SMILES): COc1cc(OC)nc(NC(=O)NS(=O)(=O)c2ncccc2C(=O)N(C)C)n1 [Nicosulfuron, nicosulfuron]
- CYNDA (% phyto) Observed [1, 7]: 5%
- CYNDA (% phyto) Observed [1, 8]: 10%
- CYNDA (% phyto) Observed [1, 9]: 0%
- CCHIN (% control) Observed [2, 7]: 65%
- CCHIN (% control) Observed [2, 8]: 78%
- CCHIN (% control) Observed [2, 9]: 88%
- CYNDA (% phyto) Observed [3, 10]: 3%
- CYNDA (% phyto) Observed [3, 11]: 0%
- SETGE (% control) Observed [4, 10]: 28%
- SETGE (% control) Observed [4, 11]: 10%
- CYNDA (% phyto) Observed [5, 12]: 0%
- CYNDA (% phyto) Observed [5, 13]: 0%
- CYNDA (% phyto) Observed [5, 14]: 0%
- BROCA (% control) Observed ([6]; nicosulfuron 39 g a.i./ha, 15 DAA, Eatonton, GA): 10%
- BROCA (% control) Observed [6, 12]: 63%
- BROCA (% control) Observed [6, 13]: 79%
- BROCA (% control) Observed [6, 14]: 53%

Structure (SMILES): O=C(O)CNCP(=O)(O)O [Glyphosate, glyphosate]
- CYNDA (% phyto) Observed [1, 15]: 0%
- CYNDA (% phyto) Observed [1, 16]: 0%
- CYNDA (% phyto) Observed [1, 17]: 0%
- CYNDA (% phyto) Observed [1, 18]: 5%
- CYNDA (% phyto) Observed [1, 19]: 0%
- CYNDA (% phyto) Observed [1, 20]: 0%
- CYNDA (% phyto) Observed [1, 21]: 13%
- CYNDA (% phyto) Observed [1, 22]: 0%
- CYNDA (% phyto) Observed [1, 23]: 0%
- CCHIN (% control) Observed [2, 15]: 60%
- CCHIN (% control) Observed [2, 16]: 2%
- CCHIN (% control) Observed [2, 17]: 55%
- CCHIN (% control) Observed [2, 18]: 74%
- CCHIN (% control) Observed [2, 19]: 18%
- CCHIN (% control) Observed [2, 20]: 63%
- CCHIN (% control) Observed [2, 21]: 89%
- CCHIN (% control) Observed [2, 22]: 35%
- CCHIN (% control) Observed [2, 23]: 75%
- CYNDA (% phyto) Observed [3, 24]: 0%
- CYNDA (% phyto) Observed [3, 25]: 0%
- CYNDA (% phyto) Observed [3, 26]: 18%
- CYNDA (% phyto) Observed [3, 27]: 2%
- CYNDA (% phyto) Observed [3, 28]: 0%
- CYNDA (% phyto) Observed [3, 29]: 20%
- CYNDA (% phyto) Observed [3, 30]: 11%
- CYNDA (% phyto) Observed [3, 31]: 0%
- SETGE (% control) Observed [4, 24]: 7%
- SETGE (% control) Observed [4, 25]: 3%
- SETGE (% control) Observed [4, 26]: 79%
- SETGE (% control) Observed [4, 27]: 28%
- SETGE (% control) Observed [4, 28]: 18%
- SETGE (% control) Observed [4, 29]: 84%
- SETGE (% control) Observed [4, 30]: 40%
- SETGE (% control) Observed [4, 31]: 20%
- CYNDA (% phyto) Observed [5, 32]: 0%
- CYNDA (% phyto) Observed [5, 33]: 0%
- CYNDA (% phyto) Observed [5, 34]: 0%
- CYNDA (% phyto) Observed [5, 35]: 0%
- CYNDA (% phyto) Observed [5, 36]: 0%
- CYNDA (% phyto) Observed [5, 37]: 0%
- BROCA (% control) Observed ([6]; glyphosate 144 g a.i./ha, 15 DAA, Eatonton, GA): 0%
- BROCA (% control) Observed [6, 32]: 0%
- BROCA (% control) Observed [6, 33]: 88%
- BROCA (% control) Observed [6, 34]: 0%
- BROCA (% control) Observed ([6]; glyphosate 289 g a.i./ha, 15 DAA, Eatonton, GA): 87%
- BROCA (% control) Observed [6, 35]: 0%
- BROCA (% control) Observed [6, 36]: 95%
- BROCA (% control) Observed [6, 37]: 0%
